The source of these data is PubChem BioAssay AID330 (DTP/NCI, 2004).

The assay concerns P388 leukemia ip, CD2F1 mice, survival T/C. Nature of the assay: NCI In Vivo Anticancer Drug Screen. Data for tumor model P388 Leukemia (intraperitoneal) in CD2F1 (CDF1) mice. To be noted: endpoint: median survival time, higher = longer survival. The procedure, abridged: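 Mice carrying the transplanted tumor received test compound or vehicle. Survival was recorded in each group, and the value is the treated-group measurement divided by that of the vehicle-treated control group.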

The mark [1] stands for this setting: dose: 15.0 mg/kg/injection, schedule: Q01DX005 (ip), vehicle: saline with Tween-80.
The mark [2] stands for this setting: dose: 30.0 mg/kg/injection, schedule: Q01DX005 (ip), vehicle: saline with Tween-80.
[3] abbreviates: dose: 60.0 mg/kg/injection, schedule: Q01DX005 (ip), vehicle: saline with Tween-80.
The mark [4] stands for this setting: dose: 12.5 mg/kg/injection, schedule: Q01DX009 (ip), vehicle: saline with Tween-80.
The mark [5] stands for this setting: dose: 25.0 mg/kg/injection, schedule: Q01DX009 (ip), vehicle: saline with Tween-80.

Several values for one entry are separate records, joined by “and”; a condition that tells them apart may be missing. Identical values can stand only once. Toxic doses and inconclusive results are not listed. Square brackets hold non-standard residues; d marks the D form. Peptide text beside a SMILES is read from it. ξ: configuration not given here. ξQ = NC(=O)CCC(N)C(=O)O

Take `O=C1c2ccccc2C(=O)c2c(NCC3CO3)ccc(NCC3CO3)c21` (stereo unspecified): the T/C was 112 % of control (dose: 0.75 mg/kg/injection, schedule: Q01DX005 (ip), vehicle: Klucel (hydroxypropylcellulose) (HPC)); 112 % of control (dose: 1.5 mg/kg/injection, schedule: Q01DX005 (ip), vehicle: Klucel (hydroxypropylcellulose) (HPC)); 114 % of control (dose: 3.0 mg/kg/injection, schedule: Q01DX005 (ip), vehicle: Klucel (hydroxypropylcellulose) (HPC)); 114 % of control (dose: 6.0 mg/kg/injection, schedule: Q01DX005 (ip), vehicle: Klucel (hydroxypropylcellulose) (HPC)).

As to `CCC[As](CCC)SC1CCC2(C)C(=CCC3C4CCC(=O)C4(C)CCC32)C1` (stereo unspecified), the T/C is, setting by setting: (dose: 12.5 mg/kg/injection, schedule: Q01DX009 (ip), vehicle: distilled water + Tween-80) 98 % of control; (dose: 25.0 mg/kg/injection, schedule: Q01DX009 (ip), vehicle: distilled water + Tween-80) 98 % of control; (dose: 50.0 mg/kg/injection, schedule: Q01DX009 (ip), vehicle: distilled water + Tween-80) 95 % of control; (dose: 100.0 mg/kg/injection, schedule: Q01DX009 (ip), vehicle: distilled water + Tween-80) 92 % of control; (dose: 200.0 mg/kg/injection, schedule: Q01DX009 (ip), vehicle: distilled water + Tween-80) 98 % of control.

`O=NNc1ccc(Cl)cn1`: the T/C was 123 % of control (dose: 3.12 mg/kg/injection, schedule: Q01DX009 (ip), vehicle: water) and 187 % of control (dose: 12.5 mg/kg/injection, schedule: Q01DX009 (ip), vehicle: water).

As for `[Ni]=[Se]`, the T/C by setting is: (dose: 60.0 mg/kg/injection, schedule: Q01DX005 (ip), vehicle: saline) 97 % of control; (dose: 120.0 mg/kg/injection, schedule: Q01DX005 (ip), vehicle: saline) 96 % of control; (dose: 240.0 mg/kg/injection, schedule: Q01DX005 (ip), vehicle: saline) 97 % of control.

As for `CCCC1(c2ccccc2)CCCC(C#N)C1=O` (stereo unspecified), the T/C is 104 % of control (dose: 100.0 mg/kg/injection, schedule: Q04DX002 (ip), vehicle: Klucel (hydroxypropylcellulose) (HPC)); 107 % of control (dose: 200.0 mg/kg/injection, schedule: Q04DX002 (ip), vehicle: Klucel (hydroxypropylcellulose) (HPC)); 106 % of control (dose: 400.0 mg/kg/injection, schedule: Q04DX002 (ip), vehicle: Klucel (hydroxypropylcellulose) (HPC)).

As for `CN(C)CC(CN(C)C)C(=O)/C=C/c1ccccc1`, the T/C runs as follows: (dose: 1.56 mg/kg/injection, schedule: Q01DX005 (ip), vehicle: saline) 99 % of control; (dose: 3.12 mg/kg/injection, schedule: Q01DX005 (ip), vehicle: saline) 107 % of control.

Consider `CCOc1cc2c(cc1C/C=C/c1cc(OC)c(OC)c(OC)c1)OCO2`, for which the T/C is, setting by setting: under setting [1], 94 % of control; under setting [2], 95 % of control; under setting [3], 95 % of control.

On to `NC(=O)CCC(N)C(=O)NCC(=O)O` (stereo unspecified) (H-[ξQ]-Gly-OH), for which the T/C was 106 % of control (dose: 12.5 mg/kg/injection, schedule: Q01DX005 (ip), vehicle: distilled water + Tween-80); 109 % of control (dose: 25.0 mg/kg/injection, schedule: Q01DX005 (ip), vehicle: distilled water + Tween-80); 104 % of control (dose: 50.0 mg/kg/injection, schedule: Q01DX005 (ip), vehicle: distilled water + Tween-80); 109 % of control (dose: 100.0 mg/kg/injection, schedule: Q01DX005 (ip), vehicle: distilled water + Tween-80); 113 % of control (dose: 200.0 mg/kg/injection, schedule: Q01DX005 (ip), vehicle: distilled water + Tween-80).

For `O=C1CCCCCCCCC1O` (stereo unspecified), the T/C is 106 % of control (dose: 100.0 mg/kg/injection, schedule: Q04DX003 (ip), vehicle: saline with Tween-80); 108 % of control (dose: 200.0 mg/kg/injection, schedule: Q04DX003 (ip), vehicle: saline with Tween-80); 110 % of control (dose: 400.0 mg/kg/injection, schedule: Q04DX003 (ip), vehicle: saline with Tween-80).

Consider `CNC(=S)N/N=C/Cn1cc([N+](=O)[O-])c(=O)[nH]c1=O`, for which the T/C (dose: 50.0 mg/kg/injection, schedule: Q01DX005 (ip), vehicle: Klucel (hydroxypropylcellulose) (HPC)) is 98 % of control and the T/C (dose: 100.0 mg/kg/injection, schedule: Q01DX005 (ip), vehicle: Klucel (hydroxypropylcellulose) (HPC)) was 100 % of control.

Consider `Cc1cc(N(CCCl)CCCl)ccc1N=Nc1ccccc1C(=O)[O-].Cc1cc(N(CCCl)CCCl)ccc1N=Nc1ccccc1C(=O)[O-].[Cu+2]`, for which the T/C was 150 % of control (dose: 12.0 mg/kg/injection, schedule: Q04DX003 (ip), vehicle: saline with Tween-80); 209 % of control under setting [4]; 154 % of control (dose: 12.5 mg/kg/injection, schedule: Q04DX003 (ip), vehicle: saline with Tween-80); 95 % of control under setting [5]; 195 % of control (dose: 25.0 mg/kg/injection, schedule: Q04DX003 (ip), vehicle: saline with Tween-80); 95 % of control (dose: 50.0 mg/kg/injection, schedule: Q04DX003 (ip), vehicle: saline with Tween-80). Moreover, the T/C by setting is: (dose: 375.0 micrograms/kg/injection, schedule: Q04DX003 (ip), vehicle: saline) 109 % of control; (dose: 750.0 micrograms/kg/injection, schedule: Q04DX003 (ip), vehicle: saline) 109 % of control; (dose: 1500.0 micrograms/kg/injection, schedule: Q04DX003 (ip), vehicle: saline) 104 % of control.

On to `Cn1ncc2c(Cl)ncnc21`, for which the T/C is 91 % of control (dose: 50.0 mg/kg/injection, schedule: Q01DX009 (ip), vehicle: Klucel (hydroxypropylcellulose) (HPC)); 93 % of control (dose: 100.0 mg/kg/injection, schedule: Q01DX009 (ip), vehicle: Klucel (hydroxypropylcellulose) (HPC)); 107 % of control (dose: 200.0 mg/kg/injection, schedule: Q01DX009 (ip), vehicle: Klucel (hydroxypropylcellulose) (HPC)).

Consider `CNCS(=O)(=O)O`, for which the T/C (dose: 50.0 mg/kg/injection, schedule: Q01DX009 (ip), vehicle: saline) was 106 % of control; the T/C (dose: 100.0 mg/kg/injection, schedule: Q01DX009 (ip), vehicle: saline) was 101 % of control; the T/C (dose: 200.0 mg/kg/injection, schedule: Q01DX009 (ip), vehicle: saline) is 93 % of control.

In the case of `CCC[CH2][Sn]([CH2]CCC)([CH2]CCC)[C]1(CCCC2CO2)SCCCS1` (stereo unspecified), the T/C reads like this: under setting [4], 86 % of control; under setting [5], 94 % of control; (dose: 50.0 mg/kg/injection, schedule: Q01DX009 (ip), vehicle: saline with Tween-80) 108 % of control.

Turning to `Cc1c(-c2ccccc2)oc(=O)c(Cl)c1N(c1ccccc1)c1ccccc1`, the T/C by setting is: (dose: 50.0 mg/kg/injection, schedule: Q01DX005 (ip), vehicle: saline with Tween-80) 93 % of control; (dose: 100.0 mg/kg/injection, schedule: Q01DX005 (ip), vehicle: saline with Tween-80) 98 % of control; (dose: 200.0 mg/kg/injection, schedule: Q01DX005 (ip), vehicle: saline with Tween-80) 90 % of control.

Regarding `O=C1C2=C(Nc3cc([N+](=O)[O-])ccc3N2)OC1c1c[nH]c2ccc(COc3ccccc3)cc12` (stereo unspecified), the T/C was 93 % of control under setting [3] and 94 % of control (dose: 120.0 mg/kg/injection, schedule: Q01DX005 (ip), vehicle: saline with Tween-80).

Consider `COc1c2occc2c(S(=O)(=O)Cl)c2ccc(=O)oc12`, for which the T/C (dose: 100.0 mg/kg/injection, schedule: Q01DX001 (ip), vehicle: saline with Tween-80) is 95 % of control; the T/C (dose: 200.0 mg/kg/injection, schedule: Q01DX001 (ip), vehicle: saline with Tween-80) is 109 % of control; the T/C (dose: 400.0 mg/kg/injection, schedule: Q01DX001 (ip), vehicle: saline with Tween-80) is 100 % of control.

Consider `O=S(=O)(O)SCCNCCCCC1CCCCC1`, for which the T/C is, setting by setting: (dose: 3.75 mg/kg/injection, schedule: Q01DX005 (ip), vehicle: saline with Tween-80) 99 % of control; (dose: 7.5 mg/kg/injection, schedule: Q01DX005 (ip), vehicle: saline with Tween-80) 90 % of control; under setting [1], 101 % of control and 104 % of control; under setting [2], 111 % of control; under setting [3], 120 % of control.

With `CC1CCC(C(C)C)C([c-]2[c-][c-][c-][c-]2)C1.CC1CCC(C(C)C)C([c-]2[c-][c-][c-][c-]2)C1.[Cl][Zr][Cl]` (stereo unspecified), the T/C by setting is: (dose: 6.25 mg/kg/injection, schedule: Q01DX001 (ip), vehicle: Klucel (hydroxypropylcellulose) (HPC)) 110 % of control; (dose: 12.5 mg/kg/injection, schedule: Q01DX001 (ip), vehicle: Klucel (hydroxypropylcellulose) (HPC)) 100 % of control; (dose: 25.0 mg/kg/injection, schedule: Q01DX001 (ip), vehicle: Klucel (hydroxypropylcellulose) (HPC)) 103 % of control.
